Assay results from patent US20070219180A1, “Muscle Relaxtion Accelerator and Therapeutic Agent for Muscular Tissue Diseases Such as Muscle Relaxation Failure” (priority 2004, published 2007).
“And” between values parts separate entries of the source, which are not always exact repeats. Equal values may be shown once.

Key:
white rabbits [1] = test: Experiment 9: effect of the compound on blood pressure in rabbits; type: in vivo, rabbit; conditions: for Mean blood pressure relative to before administration (100%): before administration (defined as 100%)
Procedure: Effects of the compound on blood pressure were examined in the same way as described in Experiment 2. In this experiment, Control and Tests 6-9 were anesthetized with a single intravenous injection of 20 mg/kg methohexital sodium under artificial respiration (Type AR1Narishige Group) using endotracheal intubation. The 1,4-benzothiazepine derivative or pharmaceutically acceptable salt thereof was used as the compound in this experiment.
Five white rabbits (weight: 2.7-2.9 kg) were used in this experiment: a rabbit (weight: 2.8 kg, Control) that received control solution, a rabbit (weight: 2.7 kg, Test 6) that received the compound at 0.04 mg/kg/min, a rabbit (weight: 2.7 kg, Test 7) that received the compound at 0.04 mg/kg/min, a rabbit (weight: 2.9 kg, Test 8) that received the compound at 0.4 mg/kg/min, and a rabbit (weight: 2.8 kg, Test 9) that received the compound at 0.4 mg/kg/min.
(§1) Each rabbit was anesthetized with a single intravenous injection of 20 mg/kg methohexital sodium under artificial respiration (Type AR1 Narishige Group) using endotracheal intubation. Subsequently, α-chloralose was injected into the ear veins at 90 mg/kg/20 min. A DMSO solution of the compound was prepared by dissolving 100 mg of the compound in 1 ml of dimethylsulfoxide (DMSO), and stored at 4° C.
In this experiment, injection catheters for the compound for administration of drugs were inserted into the right external jugular veins of the rabbits and microchip catheters (SPC-320, Millar) for blood pressure measurement were inserted via the right common arteries. A 2-lead electrocardiogram was examined and blood pressure, cardiac rate, and electrocardiogram of the rabbits were monitored for 10 minutes. When the data stabilized, the electrocardiogram, systolic pressure and diastolic pressure of each rabbit were recorded on a personal computer via an A/D converter. The Control rabbit was administered 5% dextrose solution containing 0.1% DMSO as a control solution for 10 minutes at 0.1 ml/min. Test 6 and 7 rabbits were administered 5% dextrose containing the compound at 0.1 ml/min, and then the compound at an infusion rate of 0.04 mg/kg/min. Test 8 and 9 rabbits were administered 5% dextrose containing the compound at 0.1 ml/min, and then the compound at an infusion rate of 0.4 mg/kg/min.
Systolic pressure (mmHg) and diastolic pressure (mmHg) of the Control and Test rabbits were measured over 5 heart beats before administration of the solution, and 5 and 10 minutes after administration. The mean blood pressure (mmHg) was calculated from the systolic pressure (mmHg) and the diastolic pressure (mmHg), using the formula: mean blood pressure (mmHg)=[(systolic pressure+diastolic pressure)×½].

white rabbits [2] = test: Experiment 10: effect of the compound on cardiac rate and PQ interval on the electrocardiogram; type: in vivo, rabbit; conditions: for Cardiac rate: listed as the test compound; for Cardiac rate relative to before administration (100%) / PQ interval relative to before administration (100%): before administration (defined as 100%)
Procedure: In this experiment, the 1-hydrochloride of the compound, 4-[3-(4-benzylpiperidin-1-yl)propionyl]-7-methoxy-2,3,4,5-tetrahydro-1,4-benzothiazepine 1-hydrochloride (hereinafter called the compound) was used as the 1,4-benzothiazepine derivative or pharmaceutically acceptable salt thereof.
Five white rabbits (weight: 2.7-2.9 kg) were used in this experiment: a rabbit (weight 2.8 kg, Control 1) that was administered control solution, a rabbit (weight 2.7 kg, Test 10) that received the compound at 0.04 mg/kg/min, a rabbit (weight 2.7 kg, Test 11) that received the compound at 0.04 mg/kg/min, a rabbit (weight 2.9 kg, Test 12) that received the compound at 0.4 mg/kg/min, and a rabbit (weight 2.8 kg, Test 13) that received the compound at 0.4 mg/kg/min.
as §1
In this experiment, injection catheters for administration of the compound and other drugs were inserted into the right external jugular veins of the rabbits, and microchip catheters (SPC-320, Millar) for blood pressure measurement were inserted via the right common arteries. A 2-lead electrocardiogram was examined, and blood pressure, cardiac rate, and electrocardiogram of the rabbits were monitored for 10 minutes. When the data stabilized, the electrocardiogram, systolic pressure and diastolic pressure of each rabbit were recorded on a personal computer via an A/D converter. The Control rabbit was administered 5% dextrose solution containing 0.1% DMSO as a control solution for 10 minutes at 0.1 ml/min. Test 10 and 11 rabbits were administered 5% dextrose containing the compound at 0.1 ml/min, and then the compound at an infusion rate of 0.04 mg/kg/min. Test 12 and 13 were administered 5% dextrose containing the compound at 0.1 ml/min, and then the compound at an infusion rate of 0.4 mg/kg/min.
Cardiac rate and PQ interval in the Control and Test rabbits were measured before administration of the test solution, and 5 and 10 minutes after administration. The PQ interval, which is the time interval between the beginning of the P-wave and the beginning of next Q wave, reflects the conduction velocity of electrical stimulation from the atrium to the ventricle. The cardiac rates before administration of the test solution were defined as 100%, and data for the cardiac rate after administration of the compound are shown in Table 10.

[3] = infusion rate 0.04 mg/kg/min, after 5 minutes
[4] = infusion rate 0.04 mg/kg/min, after 10 minutes
[5] = infusion rate 0.04 mg/kg/min, before administration
[6] = infusion rate 0.4 mg/kg/min, after 5 minutes
[7] = infusion rate 0.4 mg/kg/min, after 10 minutes
[8] = infusion rate 0.4 mg/kg/min, before administration

## COc1ccc2c(c1)CN(C(=O)CCN1CCC(Cc3ccccc3)CC1)CCS2 [the compound, 4-[3-(4-benzylpiperidine-1-yl)propionyl]-7-methoxy-2,3,4,5-tetrahydro-1,4-benzothiazepine]
White rabbits [1]; [3]
  Mean blood pressure: 79.5 mmHg and 82.0 mmHg
White rabbits [1]; [4]
  Mean blood pressure: 85.9 mmHg and 93.4 mmHg
White rabbits [1]; [5]
  Mean blood pressure: 85.6 mmHg and 87.7 mmHg
White rabbits [1]; infusion rate 0.04 mg/kg/min
  Mean blood pressure relative to before administration (100%): (100%)
White rabbits [1]; [6]
  Mean blood pressure: 35.7 mmHg and 64.5 mmHg
White rabbits [1]; [7]
  Mean blood pressure: 41.7 mmHg and 46.3 mmHg
White rabbits [1]; [8]
  Mean blood pressure: 74.0 mmHg and 97.7 mmHg
White rabbits [1]; infusion rate 0.4 mg/kg/min
  Mean blood pressure relative to before administration (100%): (100%)
White rabbits [2]; 0.4 mg/kg/min, 10 minutes after administration, Test 12 and Test 13 rabbits
  Increase of PQ interval compared to before administration: approximately 50%
White rabbits [2]; [3]
  PQ interval: 73 milliseconds and 66 milliseconds
  Cardiac rate: 289 min⁻¹ and 283 min⁻¹
White rabbits [2]; [4]
  PQ interval: 74 milliseconds and 68 milliseconds
  Cardiac rate: 286 min⁻¹ and 281 min⁻¹
White rabbits [2]; [5]
  PQ interval: 71 milliseconds and 64 milliseconds
  Cardiac rate: 297 min⁻¹ and 286 min⁻¹
White rabbits [2]; infusion rate 0.04 mg/kg/min
  Cardiac rate relative to before administration (100%): (100%)
  PQ interval relative to before administration (100%): (100%)
White rabbits [2]; [6]
  PQ interval: 92 milliseconds and 82 milliseconds
  Cardiac rate: 350 min⁻¹ and 311 min⁻¹
White rabbits [2]; [7]
  PQ interval: 107 milliseconds and 103 milliseconds
  Cardiac rate: 157 min⁻¹ and 98 min⁻¹
White rabbits [2]; [8]
  PQ interval: 69 milliseconds and 68 milliseconds
  Cardiac rate: 372 min⁻¹ and 327 min⁻¹
White rabbits [2]; infusion rate 0.4 mg/kg/min
  Cardiac rate relative to before administration (100%): (100%)
  PQ interval relative to before administration (100%): (100%)
